Patent publication EP0048159A2, “Novel carboxyalkyl peptides and thioethers and ethers of peptides as antihypertensive agents” (UNIVERSITY OF MIAMI, priority 1980, dated 1982)

Legend:
Human plasma ACE = target: T1, Human plasma ACE (Homo sapiens, UniProt P12821); experiment: Inhibitory potency in vitro: ACE assay with [3H]hippuryl-His-Leu substrate; type: biochemical; conditions: hippuryl-His-Leu 1 x 10^-4 M, 0.05 M Hepes buffer pH 8.0, 15 minutes at 37°C, read-out: I50
T1 construct: Human plasma ACE was assayed in 0.05 M Hepes buffer, pH 8.0; from tissue; host or cells: human plasma
T1 sequence (P12821 30-1232 limits assumed): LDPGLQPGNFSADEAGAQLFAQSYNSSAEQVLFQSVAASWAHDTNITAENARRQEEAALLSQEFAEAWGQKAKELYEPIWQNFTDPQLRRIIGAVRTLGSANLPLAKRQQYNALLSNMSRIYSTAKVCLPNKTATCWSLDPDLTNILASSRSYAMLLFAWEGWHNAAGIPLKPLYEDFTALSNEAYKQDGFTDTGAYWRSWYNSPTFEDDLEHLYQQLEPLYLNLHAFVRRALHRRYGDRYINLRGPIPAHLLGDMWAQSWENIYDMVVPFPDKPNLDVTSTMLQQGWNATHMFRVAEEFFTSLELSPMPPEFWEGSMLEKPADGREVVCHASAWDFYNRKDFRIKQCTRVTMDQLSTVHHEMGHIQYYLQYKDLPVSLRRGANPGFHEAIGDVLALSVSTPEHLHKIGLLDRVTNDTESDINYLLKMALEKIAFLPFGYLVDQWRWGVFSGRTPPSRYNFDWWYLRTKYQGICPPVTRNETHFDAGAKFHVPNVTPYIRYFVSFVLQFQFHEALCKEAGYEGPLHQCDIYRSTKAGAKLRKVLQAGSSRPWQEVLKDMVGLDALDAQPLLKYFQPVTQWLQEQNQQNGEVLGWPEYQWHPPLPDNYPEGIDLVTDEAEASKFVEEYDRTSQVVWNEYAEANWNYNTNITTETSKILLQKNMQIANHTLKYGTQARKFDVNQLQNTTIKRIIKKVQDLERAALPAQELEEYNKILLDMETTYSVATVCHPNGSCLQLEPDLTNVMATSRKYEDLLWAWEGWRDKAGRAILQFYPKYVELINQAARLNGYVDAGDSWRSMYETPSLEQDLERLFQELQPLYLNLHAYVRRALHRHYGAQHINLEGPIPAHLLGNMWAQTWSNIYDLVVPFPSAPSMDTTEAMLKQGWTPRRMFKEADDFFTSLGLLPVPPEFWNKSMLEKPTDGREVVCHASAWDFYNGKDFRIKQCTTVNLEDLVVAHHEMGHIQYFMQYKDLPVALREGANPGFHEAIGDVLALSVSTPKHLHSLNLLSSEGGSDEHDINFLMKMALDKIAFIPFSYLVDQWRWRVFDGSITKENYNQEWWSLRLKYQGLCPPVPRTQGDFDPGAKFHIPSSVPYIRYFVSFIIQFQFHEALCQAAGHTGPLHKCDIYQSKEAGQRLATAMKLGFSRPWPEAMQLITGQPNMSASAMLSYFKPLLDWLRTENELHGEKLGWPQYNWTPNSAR
Method: The inhibitory potency of several compounds in vitro was measured in the following assay. Human plasma ACE was assayed in 0.05 M Hepes buffer, pH 8.0 containing 0.1 M NaCl and 0.75 M Na2SO4. The substrate employed was hippuryl-His-Leu at a final concentration-of 1 x 10^-4 M, (Km = 2 x 10^-4 M), together with about 130,000 cpm/50 µl of [^3Hlhippuryl-His-Leu (25 Ci/mmole). Enzyme was diluted in the above buffer such that 40 ul of buffered enzyme was capable of hydrolyzing 13% of substrate in a 15 minute incubation at 37°C. To initiate the assay, 40 µl of enzyme and 10 µl of buffer or inhibitor dissolved in buffer were preincubated for two minutes at 37°C. Substrate, 50 µl, was then added to initiate reaction and the solution was incubated for 15 minutes at 37°C. To terminate the reaction, 1 ml of 0:1 M HC1 was added, following which 1 ml of ethyl acetate was added. The mixture was
An aliquot, 500 ul. of the ethyl acetate layer was transferred to a liquid scintillation vial containing 10 ml of Riafluor, trademark New England Nuclear Corporation, Boston, Massachusetts. For determination of I50 values, enzyme activity in the presence of inhibitor at a series of different concentrations was compared to activity in the absence of inhibitor. A plot of log inhibitor concentration versus percent inhibition yielded the I50 value; the concentration of inhibitor required to reduce enzymic activity by 50%.

[1] = Loss of activity of aqueous solution on standing under ambient conditions; type: physicochemical; conditions: fresh aqueous solution, 1 mg per ml, pH of about 8, standing for as little as 30 minutes
Description: In vitro study of the mechanism by which SQ14225 and its analogs act to inhibit ACE has been somewhat hampered by the instability of these molecules under ambient conditions.

Rats = experiment: Intravenous effectiveness: blood pressure response to angiotensin I in anesthetized rats; type: in vivo; conditions: 20 µmole/kg intravenously
Method: Rats (190-290 g body weight) were fasted overnight and then anesthetized with intraperitoneal pentobarbital, 50-60 mg/kg. Tracheostomy was performed and the animals were ventilated mechanically. A cannula was inserted into a femoral vein for injection of angiotensin I, and a second cannula was inserted into a common carotid artery for direct measurement of arterial blood pressure. Heparin, 1,000 units, was injected via the femoral vein to prevent coagulation. Blood pressure was measured with a pressure transducer connected to a polygraph. The rats were injected with […] of angiotensin I in 20 pl of 0.9 g % NaCl; an amount of angiotensin I sufficient to raise mean arterial blood pressure by approximately 40 mm Hg. After the responsiveness of a given rat to angiotensin I was established, the named compound at 20 µmole/kg (drug dissolved in 0.15 ml of H20 plus 10 µl of 1 N NaHC03), was given intravenously. At timed intervals, the effects of 400 ng/kg of angiotensin I on mean arterial blood pressure were tested.

SMILES | IC50 (Human plasma ACE) [nM] | further results
CC(O)CC(SC(C)C(=O)N1CCC[C@H]1C(=O)O)C(=O)O (stereo partly drawn) [N-[2-(1-carboxy-3-hydroxy-butylthio)-propanoyl]-L-proline] | 30 | –
CC1CC(SC(C)C(=O)N2CCC[C@H]2C(=O)O)C(=O)O1 (stereo partly drawn) [N-[2-(tetrahydro-5-methyl-2-furanone-3-thio)-propanoyl]-L-proline] | 130 | –
C[C@H](CS)C(=O)N1CCC[C@H]1C(=O)O [SQ14225] | – | activity of aqueous solution upon standing [1]: substantially less active
CC(SC(C)C(=O)N1CCC[C@H]1C(=O)O)C(=O)O (stereo partly drawn) [N-[2-(1-carboxyethylthio)-propanoyl]-L-proline] | 400 | –
CC(N[C@@H](C)C(=O)N1CCC[C@H]1C(=O)O)C(=O)O (stereo partly drawn) [N-(1-carboxyethyl)-L-alanyl-L-proline, reference compound] | 8 | –
CC(SC[C@@H](C)C(=O)N1CCC[C@H]1C(=O)O)C(=O)O (stereo partly drawn) [N-[3-(1-carboxyethylthio)-2-D-methylpropanoyl]-L-proline] | 1500 | Blood Pressure Reponse to 400 ng/kg of Angiotensin I (% of Control) (Rats; 8 minutes after IV administration): 62.5 % of Control; Blood Pressure Reponse to 400 ng/kg of Angiotensin I (% of Control) (Rats; 15 minutes after IV administration): 37.5 % of Control; Blood Pressure Reponse to 400 ng/kg of Angiotensin I (% of Control) (Rats; 21 minutes after IV administration): 37.5 % of Control; Blood Pressure Reponse to 400 ng/kg of Angiotensin I (% of Control) (Rats; +2 minutes after IV administration): 67.5 % of Control
CCOC(=O)C(C)N[C@@H](C)C(=O)N1CCC[C@H]1C(=O)O (stereo partly drawn) [N-(1-ethoxycarbonylethyl)-L-alanyl-L-proline] | 60 | –
